Literature values in US20230174656A1, “T[…] REMDESIVIR COMBINATION THERAPY FOR COVID-19 PNEUMONIA” (priority 2020, published 2023).
Like-named read-outs stand apart in the source and are kept apart here.

Tests used:
[1] = tested on: CAR T cell-induced severe or life-threatening CRS; conditions: cited from earlier work
[2] = cited from earlier work; for geometric mean maximum concentration of TCZ: patients with CAR T cell induced CRS, % CV in brackets
COVID-19 pneumonia = conditions: cited from earlier work

TCZ: recombinant humanized monoclonal IgG1κ antibody that binds to human interleukin-6 receptor (IL-6R); light and heavy chains SEQ ID NOs. 1 and 2
patients achieving a response (afebrile and off vasopressors for at least 24 hours) within 14 days of the first dose of TCZ ([1]; CTL019 series, 45 patients, maximum up to two doses): 69% | median time from the first dose to response ([1]; CTL019 series): 4 days | patients achieving a response ([1]; axicabtagene ciloleucel series, 15 patients): 53% | median time to response ([1]; axicabtagene ciloleucel series): 4.5 days | adverse reactions attributable to TCZ ([1]; patients with CRS after CAR T-cell therapy): no reports of adverse reactions attributable to TCZ | geometric mean maximum concentration of TCZ ([2]; after the first infusion): 99.5 µg/mL | geometric mean maximum concentration of TCZ ([2]; after the second infusion): 160.7 µg/mL | clearance of TCZ (PK modeling analysis) ([2]; patients with CRS versus healthy volunteers and other patient populations): faster clearance of TCZ than healthy volunteers and other patient populations | patients in whom percentage of lymphocytes in peripheral blood returned to normal (COVID-19 pneumonia; 10/19, fifth day after treatment): 52.6% | patients who had lowered their oxygen intake (COVID-19 pneumonia; 15 of 20 patients): 75.0% | patients in whom abnormally elevated CRP decreased significantly (COVID-19 pneumonia; 16/19): 84.2% | adverse drug reactions and subsequent pulmonary infections (COVID-19 pneumonia; 21 treated patients): No adverse drug reactions and no subsequent pulmonary infections were reported | deaths (COVID-19 pneumonia; 21 treated patients): no deaths among the 21 treated patients | fever after TCZ treatment (COVID-19 pneumonia; TCZ IV 400 mg plus standard of care): fever returned to normal | patients needing no oxygen therapy (COVID-19 pneumonia; after TCZ treatment): one patient needed no oxygen therapy | patients with significant remission of opacities in both lungs on CT scans (COVID-19 pneumonia; after treatment): 90.5% | patients discharged at the time of the report (COVID-19 pneumonia; nineteen patients, including two critical patients): 90.5%
